Patent publication US20110118337A1, “Method of Using Compositions Comprising MIR-192 and/or MIR-215 for the Treatment of Cancer” (Merck Sharp & Dohme Corp., priority 2008, published 2011)

How the values were obtained:
HCT116DICER^ex5 cells [1] = assay: Cell cycle FACS analysis of siRNAs against top G1 and G2 arrest genes (nocodazole or aphidicolin); assay type: cell-based, human; conditions: 10 mM miR-192
Experimental: Of the 62 genes shown above in TABLE 6, the 10 genes whose targeting by siRNA caused the largest percentage of cells to arrest in G1, listed below in TABLE 7, were transfected into HCT116DICER^ex5 cells in another experiment as follows.
HCT116DICER^ex5 cells were transfected with […] miR-192 or 100 nM siRNA against luciferase, or 100 nM siRNA (one siRNA duplex of the pool of three) against the putative miR-192 target of interest, as indicated in TABLES 7 and 8. At 48 hours post transfection, cells were treated with nocodazole or aphicicolin for an additional 18 hours prior to FACS analysis. The results for the nocodazole treated cells (% of cells in G1) are provided in TABLE 7, and graphically illustrated in FIG. 3A. The results for the aphidicolin treated cells (% of cells in G2) are provided in TABLE 8 and graphically illustrated in FIG. 3B.

[2] = system: 3′ UTRs of the 18 candidate genes in U-2-OS cells; assay: 3′ UTR luciferase reporter analysis; assay type: cell-based; conditions: 10 nM, 24 hours post-transfection
Text: In order to test whether miR-192 is regulating these genes through seed sequence-specific recognition of binding sites within their 3' UTRs, a series of reporter constructs were generated containing the entire natural 3' UTRs of the 18 candidate genes (BCL2, CDC7, CUL5, DLG5, DTL, ERCC3, HOXA10, HRH1, LMNB2, MAD2L1, MCM10, MIS12, MPHOSPH1, PIM1, PRPF38A, […]1, SEPT10 and SMARCB1) inserted downstream of a luciferase open reading frame (SwitchGear Genomics) to create 3' UTR luciferase reporter plasmids. U-2-OS cells were transfected first with 10 nM miR-192 or 10 nM miR-192 mutant, and subsequently transfected 4 to 6 hours later with these 3' UTR reporter plasmids. A renilla luciferase expression plasmid from dual luciferase system (Promega) was used as an internal control. Luciferase activity was measured at 24 hours post-transfection, and quantified relative to renilla luciferase activity.

[3] = system: miR-192 target transcripts; assay: Down-regulation of miR-192 target transcripts; assay type: cell-based
HCT116DICER^ex5 cells [4] = assay: BrdU pulse-labeling, flow cytometry (S-phase); assay type: cell-based, human; conditions: BrdU pulse-labeled; 10 nM duplex
Experimental: (§1) At 48 hours post transfection, cells were left untreated, treated with nocodazole (100 ng/mL, Sigma-Aldrich), or treated with aphidicolin (2 μg/mL, Sigma-Aldrich) for an additional 18 hours before harvesting. The cells were then trypsinized, collected, fixed and stained with a propidium iodide solution. BrdU-labeling was performed according to the manufacturer's instructions (BD-Pharmigen). For phospho-histone H3 analysis, cells were fixed and permeabilized with IPF buffer (100 mM PIPES pH 6.8, 10 mM EDTA, 1 mM MgCl2, 0.2% Triton X-100, 4% formaldehyde) and stained with propidium iodide and anti-phospho-histone H3 antibody conjugated to Alexa-488 (Cell Signaling Technology). The cells were analyzed using a FACSCalibur flow cytometer (Beacton Dickinson) and FlowJo software (Tree Star, Inc.).
The transfected cells were also pulse-labeled with the thymidine analog 5-bromo-deoxyuridine (BrdU) to assay for defects in DNA synthesis. Using flow cytometry and it was determined that the percentage of cells in S-phase in the mock transfected population was 37.3%, whereas the percentage of cells in S-phase in the miR-192 transfected population was 11.9%.

[5] = system: 18 candidate downstream targets of miR-192/miR-215 in U-2-OS cells; assay: Transcript abundance of target genes by quantitative PCR (Taqman); assay type: cell-based; conditions: 10 nM, 10 hours following transfection, relative to luciferase siRNA or miR-192 seed region mutant
Experimental: To further confirm that the candidate genes shown in TABLE 7 and TABLE 8 are direct downstream targets of miR-192/miR-215, miR-192 siRNA (10 nM) synthetic duplexes, miR-192 mutant (10 nM) or 10 nM siRNA against luciferase were transfected into the cell line U-2-OS, an osteosarcoma cell line that has wild-type DICER function and a relatively low endogenous level of miR-192/miR-215.
RNA was isolated at 10 hours post-transfection and transcript abundance of the target genes shown in TABLE 7 and TABLE 8 was measured by quantitative PCR. Transcript abundance was measured by Taqman gene expression assay (Applied Biosystems) using hGUS as an internal control. Levels of transcripts were quantified using an ABI Prism 7900HT sequence detection system.

HCT116DICER^ex5 cells [6] = assay: Phospho-histone H3 immunostaining, flow cytometry (M-phase), nocodazole-treated; assay type: cell-based, human; conditions: phospho-histone-H3 positive, 10 nM duplex
Experimental: as §1
Nocodazole-treated mock transfected and miR-192 transfected cells were also permeabilized, immunostained for phospho-histone-H3 (a mitotic marker) and sorted for DNA content and the respective accumulation of positively stained cells in the mitotic compartment was quantified. It was determined that the percentage of cells in M-phase in the mock transfected population was 40.9%, whereas the percentage of cells in M-phase in the miR-192 transfected population was 4.9%.

miR-192: Synthetic duplex mimetic of miR-192, guide CUGACCUAUGAAUUGACAGCC (SEQ ID NO:1), passenger SEQ ID NO:7 (sense CUGUCAAUUCAUCGGUCUGAU; listed as RNA, chemistry not given here; listed as Homo sapiens)
% Cells in G2 (HCT116DICER^ex5 cells [1]; aphidicolin 18 hours from 48 hours post transfection): 42.3% | % Cells in G1 (HCT116DICER^ex5 cells [1]; nocodazole 18 hours from 48 hours post transfection): 37.9% | regulation of 3′ UTR luciferase reporters of the 18 genes [2]: regulated | down-regulation of target transcripts [3]: 30-40% | percentage of cells in S-phase (HCT116DICER^ex5 cells [4]): 11.9% | candidate gene transcript levels [5]: decrease | percentage of cells in M-phase (HCT116DICER^ex5 cells [6]): 4.9%
